ChEMBL document CHEMBL1146687, “Novel semi-synthetic nocathiacin antibiotics: synthesis and antibacterial activity of bis- and mono-O-alkylated derivatives” (Bioorg Med Chem Lett, 2004)
In brackets after ≈: the same amount, converted by molar mass.

Legend:
[1] = Aqueous solubility at neutral pH; assay type: physicochemical
[2] = test system: Staphylococcus aureus; experiment: In vivo efficacy;(sc) tested for protection against staphylococcus infections in mice; assay type: functional; conditions: read-out: PD50
[3] = test system: Enterococcus faecalis; experiment: In vitro antibacterial activity against Enterococcus faecalis; assay type: functional
[4] = test system: Streptococcus pneumoniae; experiment: In vitro antibacterial activity against Streptococcus pneumoniae; assay type: functional
[5] = test system: Staphylococcus aureus; experiment: In vitro antibacterial activity against Staphylococcus aureus; assay type: functional
[6] = test system: Staphylococcus aureus; experiment: In vitro antibacterial activity against […]; 0.125-0.25; assay type: functional
[7] = test system: Enterococcus faecalis; experiment: In vitro antibacterial activity against Enterococcus faecalis; 0.06-0.125; assay type: functional
[8] = test system: Streptococcus pneumoniae; experiment: In vitro antibacterial activity against Streptococcus pneumoniae; 0.003-0.015; assay type: functional

| Compound | solubility [1] [µg/mL] | ED50 [2] [mg/kg] | MIC [3] [µg/mL] | MIC [4] [µg/mL] | MIC [5] [µg/mL] | MIC [6] [µg/mL] | MIC [7] [µg/mL] | MIC [8] [µg/mL] |
| --- | --- | --- | --- | --- | --- | --- | --- | --- |
| C=C(NC(=O)c1csc(-c2nc3c(cc2O)-c2nc(cs2)C(=O)N[C@@H]([C@@H](C)O)C(=O)N/C(=C(\C)OC)c2nc(cs2)C(=O)N[C@@H]2c4nc(cs4)C(=O)N[C@@H](COC(=O)c4c5c6c(cccc6n4OCCCS(=O)(=O)O)COC(=O)[C@@H](O[C@H]4C[C@](C)(O)[C@H](N(C)C)[C@H](C)O4)[C@H]2OC5)c2nc-3cs2)n1)C(N)=O | > 2000 | 4 | 0.125 (≈ 0.0801 µM) | 0.007 (≈ 0.00449 µM) | 0.125 (≈ 0.0801 µM) |  |  |  |
| C=C(NC(=O)c1csc(-c2nc3c(cc2O)-c2nc(cs2)C(=O)N[C@@H]([C@@H](C)O)C(=O)N/C(=C(\C)OC)c2nc(cs2)C(=O)N[C@@H]2c4nc(cs4)C(=O)N[C@@H](COC(=O)c4c5c6c(cccc6n4OCCCN)COC(=O)[C@@H](O[C@H]4C[C@](C)(O)[C@H](N(C)C)[C@H](C)O4)[C@H]2OC5)c2nc-3cs2)n1)C(N)=O |  | > 10 | 1 (≈ 0.669 µM) | 0.06 (≈ 0.0401 µM) | 0.25 (≈ 0.167 µM) |  |  |  |
| C=CCOc1cc2c(nc1-c1nc(C(=O)NC(=C)C(N)=O)cs1)-c1csc(n1)[C@@H]1COC(=O)c3c4c5c(cccc5n3OCC=C)COC(=O)[C@@H](O[C@H]3C[C@](C)(O)[C@H](N(C)C)[C@H](C)O3)[C@@H](OC4)[C@H](NC(=O)c3csc(n3)/C(=C(/C)OC)NC(=O)[C@H]([C@@H](C)O)NC(=O)c3csc-2n3)c2nc(cs2)C(=O)N1 |  | > 10 | 0.25 (≈ 0.165 µM) | 0.0005 (≈ 0.000329 µM) | 0.06 (≈ 0.0395 µM) |  |  |  |
| C=C(NC(=O)c1csc(-c2nc3c(cc2O)-c2nc(cs2)C(=O)N[C@@H]([C@@H](C)O)C(=O)N/C(=C(\C)OC)c2nc(cs2)C(=O)N[C@@H]2c4nc(cs4)C(=O)N[C@@H](COC(=O)c4c5c6c(cccc6n4OCCC[N+](C)(C)C)COC(=O)[C@@H](O[C@H]4C[C@](C)(O)[C@H](N(C)C)[C@H](C)O4)[C@H]2OC5)c2nc-3cs2)n1)C(N)=O |  | > 10 | 2 | 0.5 | > 128 |  |  |  |
| C=C(NC(=O)c1csc(-c2nc3c(cc2OCCCS(=O)(=O)O)-c2nc(cs2)C(=O)N[C@@H]([C@@H](C)O)C(=O)N/C(=C(\C)OC)c2nc(cs2)C(=O)N[C@@H]2c4nc(cs4)C(=O)N[C@@H](COC(=O)c4c5c6c(cccc6n4OCCCS(=O)(=O)O)COC(=O)[C@@H](O[C@H]4C[C@](C)(O)[C@H](N(C)C)[C@H](C)O4)[C@H]2OC5)c2nc-3cs2)n1)C(N)=O | > 2000 |  | 128 (≈ 76.1 µM) | 0.5 (≈ 0.297 µM) | > 128 |  |  |  |
| C=C(NC(=O)c1csc(-c2nc3c(cc2OCC(=O)N(C)C)-c2nc(cs2)C(=O)N[C@@H]([C@@H](C)O)C(=O)N/C(=C(\C)OC)c2nc(cs2)C(=O)N[C@@H]2c4nc(cs4)C(=O)N[C@@H](COC(=O)c4c5c6c(cccc6n4OCC(=O)N(C)C)COC(=O)[C@@H](O[C@H]4C[C@](C)(O)[C@H](N(C)C)[C@H](C)O4)[C@H]2OC5)c2nc-3cs2)n1)C(N)=O |  | > 10 | 4 (≈ 2.49 µM) | 0.125 (≈ 0.0777 µM) | 8 (≈ 4.98 µM) |  |  |  |
| C=C(NC(=O)c1csc(-c2nc3c(cc2O)-c2nc(cs2)C(=O)N[C@@H]([C@@H](C)O)C(=O)N/C(=C(\C)OC)c2nc(cs2)C(=O)N[C@@H]2c4nc(cs4)C(=O)N[C@@H](COC(=O)c4c5c6c(cccc6n4OCCCN4CCN(C)CC4)COC(=O)[C@@H](O[C@H]4C[C@](C)(O)[C@H](N(C)C)[C@H](C)O4)[C@H]2OC5)c2nc-3cs2)n1)C(N)=O |  | 8.7 | 1 (≈ 0.634 µM) | 0.03 (≈ 0.019 µM) | 1 (≈ 0.634 µM) |  |  |  |
| C=C(NC(=O)c1csc(-c2nc3c(cc2O)-c2nc(cs2)C(=O)N[C@@H]([C@@H](C)O)C(=O)N/C(=C(\C)OC)c2nc(cs2)C(=O)N[C@@H]2c4nc(cs4)C(=O)N[C@@H](COC(=O)c4c5c6c(cccc6n4OCCOCCOCCOCCOCCOCO)COC(=O)[C@@H](O[C@H]4C[C@](C)(O)[C@H](N(C)C)[C@H](C)O4)[C@H]2OC5)c2nc-3cs2)n1)C(N)=O |  | > 10 | 0.5 (≈ 0.296 µM) | 0.007 (≈ 0.00415 µM) | 0.125 (≈ 0.0741 µM) |  |  |  |
| C=C(NC(=O)c1csc(-c2nc3c(cc2OCCN2CCOCC2)-c2nc(cs2)C(=O)N[C@@H]([C@@H](C)O)C(=O)N/C(=C(\C)OC)c2nc(cs2)C(=O)N[C@@H]2c4nc(cs4)C(=O)N[C@@H](COC(=O)c4c5c6c(cccc6n4OCCN4CCOCC4)COC(=O)[C@@H](O[C@H]4C[C@](C)(O)[C@H](N(C)C)[C@H](C)O4)[C@H]2OC5)c2nc-3cs2)n1)C(N)=O |  | > 10 | 0.25 (≈ 0.15 µM) | 0.03 (≈ 0.018 µM) | 1 (≈ 0.601 µM) |  |  |  |
| C=C(NC(=O)c1csc(-c2nc3c(cc2O)-c2nc(cs2)C(=O)N[C@@H]([C@@H](C)O)C(=O)N/C(=C(\C)OC)c2nc(cs2)C(=O)N[C@@H]2c4nc(cs4)C(=O)N[C@@H](COC(=O)c4c5c6c(cccc6n4OCOP(=O)(OC(C)(C)C)OC(C)(C)C)COC(=O)[C@@H](O[C@H]4C[C@](C)(O)[C@H](N(C)C)[C@H](C)O4)[C@H]2OC5)c2nc-3cs2)n1)C(N)=O | > 2000 | 3 | 0.015 (≈ 0.00904 µM) | 0.015 (≈ 0.00904 µM) | 0.125 (≈ 0.0753 µM) |  |  |  |
| C=C(NC(=O)c1csc(-c2nc3c(cc2OC)-c2nc(cs2)C(=O)N[C@@H]([C@@H](C)O)C(=O)N/C(=C(\C)OC)c2nc(cs2)C(=O)N[C@@H]2c4nc(cs4)C(=O)N[C@@H](COC(=O)c4c5c6c(cccc6n4O)COC(=O)[C@@H](O[C@H]4C[C@](C)(O)[C@H](N(C)C)[C@H](C)O4)[C@H]2OC5)c2nc-3cs2)n1)C(N)=O |  | > 10 | 0.015 (≈ 0.0103 µM) | 0.003 (≈ 0.00207 µM) | 0.015 (≈ 0.0103 µM) |  |  |  |
| C=C(NC(=O)c1csc(-c2nc3c(cc2O)-c2nc(cs2)C(=O)N[C@@H]([C@@H](C)O)C(=O)N/C(=C(\C)OC)c2nc(cs2)C(=O)N[C@@H]2c4nc(cs4)C(=O)N[C@@H](COC(=O)c4c5c6c(cccc6n4OCCCOC4O[C@H](CO)[C@@H](O)[C@H](O)[C@H]4O)COC(=O)[C@@H](O[C@H]4C[C@](C)(O)[C@H](N(C)C)[C@H](C)O4)[C@H]2OC5)c2nc-3cs2)n1)C(N)=O (stereo not given in full) |  | > 10 | > 128 | 0.06 (≈ 0.0362 µM) | 16 (≈ 9.65 µM) |  |  |  |
| C=C(NC(=O)c1csc(-c2nc3c(cc2O)-c2nc(cs2)C(=O)N[C@@H]([C@@H](C)O)C(=O)N/C(=C(\C)OC)c2nc(cs2)C(=O)N[C@@H]2c4nc(cs4)C(=O)N[C@@H](COC(=O)c4c5c6c(cccc6n4OCCN4CCOCC4)COC(=O)[C@@H](O[C@H]4C[C@](C)(O)[C@H](N(C)C)[C@H](C)O4)[C@H]2OC5)c2nc-3cs2)n1)C(N)=O |  | 3.4 |  |  |  | < 0.25 | < 0.125 | < 0.015 |
| C=C(NC(=O)c1csc(-c2nc3c(cc2O)-c2nc(cs2)C(=O)N[C@@H]([C@@H](C)O)C(=O)N/C(=C(\C)OC)c2nc(cs2)C(=O)N[C@@H]2c4nc(cs4)C(=O)N[C@@H](COC(=O)c4c5c6c(cccc6n4OC)COC(=O)[C@@H](O[C@H]4C[C@](C)(O)[C@H](N(C)C)[C@H](C)O4)[C@H]2OC5)c2nc-3cs2)n1)C(N)=O |  | < 0.62 | 0.125 (≈ 0.0861 µM) | 0.003 (≈ 0.00207 µM) | 0.03 (≈ 0.0207 µM) |  |  |  |
| C=C(NC(=O)c1csc(-c2nc3c(cc2O)-c2nc(cs2)C(=O)N[C@@H]([C@@H](C)O)C(=O)N/C(=C(\C)OC)c2nc(cs2)C(=O)N[C@@H]2c4nc(cs4)C(=O)N[C@@H](COC(=O)c4c5c6c(cccc6n4OCP(=O)(OCC)OCC)COC(=O)[C@@H](O[C@H]4C[C@](C)(O)[C@H](N(C)C)[C@H](C)O4)[C@H]2OC5)c2nc-3cs2)n1)C(N)=O |  | 1.6 | 0.03 (≈ 0.0189 µM) | 0.001 (≈ 0.00063 µM) | 0.015 (≈ 0.00945 µM) |  |  |  |
| C=C(NC(=O)c1csc(-c2nc3c(cc2O)-c2nc(cs2)C(=O)N[C@@H]([C@@H](C)O)C(=O)N/C(=C(\C)OC)c2nc(cs2)C(=O)N[C@@H]2c4nc(cs4)C(=O)N[C@@H](COC(=O)c4c5c6c(cccc6n4OCCn4ccnc4)COC(=O)[C@@H](O[C@H]4C[C@](C)(O)[C@H](N(C)C)[C@H](C)O4)[C@H]2OC5)c2nc-3cs2)n1)C(N)=O |  | > 10 | 1 (≈ 0.653 µM) | 0.015 (≈ 0.00979 µM) | 0.5 (≈ 0.326 µM) |  |  |  |
| C=C(NC(=O)c1csc(-c2nc3c(cc2O)-c2nc(cs2)C(=O)N[C@@H]([C@@H](C)O)C(=O)N/C(=C(\C)OC)c2nc(cs2)C(=O)N[C@@H]2c4nc(cs4)C(=O)N[C@@H](COC(=O)c4c5c6c(cccc6n4OCCC(=O)O)COC(=O)[C@@H](O[C@H]4C[C@](C)(O)[C@H](N(C)C)[C@H](C)O4)[C@H]2OC5)c2nc-3cs2)n1)C(N)=O | ~70 (≈ 46.4 µM) | 10 | 0.25 (≈ 0.166 µM) | 0.03 (≈ 0.0199 µM) | 0.125 (≈ 0.0828 µM) |  |  |  |
| C=C(NC(=O)c1csc(-c2nc3c(cc2OCCCS(=O)(=O)O)-c2nc(cs2)C(=O)N[C@@H]([C@@H](C)O)C(=O)N/C(=C(\C)OC)c2nc(cs2)C(=O)N[C@@H]2c4nc(cs4)C(=O)N[C@@H](COC(=O)c4c5c6c(cccc6n4O)COC(=O)[C@@H](O[C@H]4C[C@](C)(O)[C@H](N(C)C)[C@H](C)O4)[C@H]2OC5)c2nc-3cs2)n1)C(N)=O |  | > 10 | 32 (≈ 20.5 µM) | 0.25 (≈ 0.16 µM) | 2 (≈ 1.28 µM) |  |  |  |
| C=C(NC(=O)c1csc(-c2nc3c(cc2OCOP(=O)(O)O)-c2nc(cs2)C(=O)N[C@@H]([C@@H](C)O)C(=O)N/C(=C(\C)OC)c2nc(cs2)C(=O)N[C@@H]2c4nc(cs4)C(=O)N[C@@H](COC(=O)c4c5c6c(cccc6n4OCOP(=O)(O)O)COC(=O)[C@@H](O[C@H]4C[C@](C)(O)[C@H](N(C)C)[C@H](C)O4)[C@H]2OC5)c2nc-3cs2)n1)C(N)=O | > 2000 | 0.15 | 0.25 (≈ 0.151 µM) | 0.015 (≈ 0.00905 µM) | 0.125 (≈ 0.0754 µM) |  |  |  |
